Consider 11 compounds from patent US11986471B2, “Compounds and methods of use” (Tango Therapeutics, Inc., priority 2018, dated 2024).

SMILES strings stand for the structures.

Test [1] concerns the target T1, PRMT5 (Homo sapiens, UniProt O14744).
T1 construct: purchased Viva (custom protein)
Description: PRMT5 IC50 assay in the presence of SAM as cofactor. The test is classed as biochemical. In outline: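 Three cofactor conditions are run: SAM-bound, MTA-bound and cofactor-free enzyme. IC50 is read from each; for the SAM and MTA arms it is divided by 1.5 and 13.5 respectively to give Ki.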

Test [2] addresses T1, PRMT5. As to the kind of experiment: PRMT5 IC50 assay in the presence of MTA as cofactor. The test is classed as biochemical. The following applies: for IC50: PRMT5, MTA as cofactor. In outline:
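Ki conversion: SAM arm, Ki=IC50/1.5; MTA arm, Ki=IC50/13.5. No-cofactor arm reported as IC50 only. Selectivity expressed as Ki(SAM)/Ki(MTA).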

Test [3] deals with T1, PRMT5. As to the kind of experiment: PRMT5 IC50 assay with no cofactor. In kind it is biochemical. In short, it runs like this:
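Cofactor-free, SAM and MTA formats; IC50 μM; Ki = IC50/1.5 for SAM, IC50/13.5 for MTA.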

The test system of the next test is HAP1 MTAP-intact. As to the kind of experiment: SDMA in-cell western assay, HAP1 MTAP-intact cell line. In kind it is cell-based. The following applies: Homo sapiens. In short, it runs like this: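 Symmetric dimethylarginine (SDMA) levels were measured by in-cell western in an isogenic HAP1 pair, one expressing endogenous MTAP and one MTAP-null, and IC50 values were derived for each line. Compounds whose IC50 ratio between the lines is 3-fold or more are classed as MTAP-selective.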

The next test concerns HAP1 MTAP-deleted. As to the kind of experiment: SDMA in-cell western assay, HAP1 MTAP-deleted cell line. The test is classed as cell-based. The following applies: for IC50: Homo sapiens, HAP1 MTAP-deleted cell line; for MTAP Intact/Deleted Ratio: IC50 ratio HAP1 MTAP-intact / HAP1 MTAP-deleted. In outline:
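Symmetric dimethylarginine (SDMA) levels were measured by in-cell western in MTAP-null HAP1 cells, one half of an MTAP-isogenic pair whose partner line expresses endogenous MTAP. Compound potency is reported as IC50.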

The mark [4] stands for this setting: ratio between the Ki in the presence of SAM and the Ki in the presence of MTA.
The mark [5] stands for this setting: ratio between Ki in the presence of SAM and Ki in the presence of MTA.

T1 sequence (O14744 whole entry): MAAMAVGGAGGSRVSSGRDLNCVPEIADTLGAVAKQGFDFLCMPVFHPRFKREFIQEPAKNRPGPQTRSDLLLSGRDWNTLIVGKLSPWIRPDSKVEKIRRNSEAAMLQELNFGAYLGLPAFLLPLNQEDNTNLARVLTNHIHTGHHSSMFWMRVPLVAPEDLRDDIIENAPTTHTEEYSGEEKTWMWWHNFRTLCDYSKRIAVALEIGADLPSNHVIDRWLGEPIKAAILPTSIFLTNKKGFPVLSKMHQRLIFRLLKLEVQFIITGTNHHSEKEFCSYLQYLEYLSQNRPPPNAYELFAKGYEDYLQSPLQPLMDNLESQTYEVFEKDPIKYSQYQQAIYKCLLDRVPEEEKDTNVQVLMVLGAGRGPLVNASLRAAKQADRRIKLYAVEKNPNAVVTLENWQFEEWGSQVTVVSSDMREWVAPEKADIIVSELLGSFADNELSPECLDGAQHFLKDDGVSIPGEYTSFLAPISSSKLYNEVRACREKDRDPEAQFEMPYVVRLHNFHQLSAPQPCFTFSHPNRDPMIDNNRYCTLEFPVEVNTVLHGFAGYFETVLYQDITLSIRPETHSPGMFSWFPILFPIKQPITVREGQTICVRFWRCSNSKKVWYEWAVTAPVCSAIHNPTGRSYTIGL
T1 sequence (Q9BQA1 whole entry partner): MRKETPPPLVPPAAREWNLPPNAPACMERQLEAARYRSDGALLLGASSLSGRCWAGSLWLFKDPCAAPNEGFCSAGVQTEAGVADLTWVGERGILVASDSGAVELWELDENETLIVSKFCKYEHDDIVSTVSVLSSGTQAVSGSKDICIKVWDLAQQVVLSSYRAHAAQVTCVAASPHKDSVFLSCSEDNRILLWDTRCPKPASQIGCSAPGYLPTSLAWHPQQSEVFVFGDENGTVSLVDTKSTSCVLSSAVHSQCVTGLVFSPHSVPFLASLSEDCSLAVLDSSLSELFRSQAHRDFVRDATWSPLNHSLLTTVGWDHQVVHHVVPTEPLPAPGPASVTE

Regarding `CCN1CCN(c2nc(NC3COC3)cc(C(=O)NC[C@H](O)CN3CCc4cc(OCc5ocnc5C)ccc4C3)n2)CC1` [Compound 544, 2-(4-ethylpiperazin-1-yl)-N-[(2S)-2-hydroxy-3-(6-[(4-methyl-1,3-oxazol-5-yl)methoxy]-1,2,3,4-tetrahydroisoquinolin-2-yl}propyl]-6-[(oxetan-3-yl)amino]pyrimidine-4-carboxamide], the IC50 (as a rule, the concentration needed to halve the response being measured) on PRMT5 [1] is 50 to 500 nM; at PRMT5 [2], 50 to 500 nM; against PRMT5 [3], 500 to 5000 nM; in the test on HAP1 MTAP-intact it was 1000 to 10000 nM; with HAP1 MTAP-deleted, 1000 to 10000 nM. In addition, the “SAM/MTA Ratio” value on PRMT5 [2] (setting [4]) was “A (a Ki ratio greater than or equal to 10 fold between the Ki in the presence of SAM and the Ki in the presence of MTA)”. In addition, the “MTAP Intact/Deleted Ratio” value in the test on HAP1 MTAP-deleted is “B* (an IC50 ratio greater than or equal to 3 fold but lower than 10 fold between the IC50 in the HAP1 MTAP-intact cell line and the HAP1 MTAP-deleted cell line)”.
For `CCN1CCN(c2nc(NC3COC3)cc(C(=O)NC[C@H](O)CN3CCc4c(ccc(OCc5ocnc5C)c4C)C3)n2)CC1` [Compound 385, 2-(4-ethylpiperazin-1-yl)-N-[(2S)-2-hydroxy-3-{5-methyl-6-[(4-methyl-1,3-oxazol-5-yl)methoxy]-1,2,3,4-tetrahydroisoquinolin-2-yl}propyl]-6-[(oxetan-3-yl)amino]pyrimidine-4-carboxamide], the IC50 was 50 to 500 nM on PRMT5 [1]; 50 to 500 nM on PRMT5 [2]; no less than 5000 nM at PRMT5 [3] (read-out: No Co-factor IC50); no less than 10000 nM with HAP1 MTAP-intact; 1000 to 10000 nM with HAP1 MTAP-deleted. Moreover, at PRMT5 [2] (setting [5]), the “SAM/MTA Ratio” value is “A (a Ki ratio greater than or equal to 10 fold between the Ki in the presence of SAM and the Ki in the presence of MTA)”. Moreover, the “MTAP Intact/Deleted Ratio” value in the test on HAP1 MTAP-deleted is “C* (an IC50 ratio of less than 3 fold between the IC50 in the HAP1 MTAP-intact cell line and the HAP1 MTAP-deleted cell line)”.
As to `Cc1ncoc1COc1ccc2c(c1)CCN(C[C@@H](O)CNC(=O)c1cc(NC3CCN(C(=O)C(C)(C)C)CC3)ncn1)C2` [Compound 616, 6-{[1-(2,2-dimethylpropanoyl)piperidin-4-yl]amino}-N-[(2S)-2-hydroxy-3-{6-[(4-methyl-1,3-oxazol-5-yl)methoxy]-1,2,3,4-tetrahydroisoquinolin-2-yl}propyl]pyrimidine-4-carboxamide], the IC50 at PRMT5 [1] was 50 to 500 nM; at PRMT5 [2], less than 50 nM; against PRMT5 [3], 500 to 5000 nM; in the test on HAP1 MTAP-intact, 1000 to 10000 nM; in the test with HAP1 MTAP-deleted it was less than 1000 nM. On PRMT5 [2] (setting [4]), the “SAM/MTA Ratio” value is “A (a Ki ratio greater than or equal to 10 fold between the Ki in the presence of SAM and the Ki in the presence of MTA)”. In addition, in the test on HAP1 MTAP-deleted, the “MTAP Intact/Deleted Ratio” value is “C* (an IC50 ratio of less than 3 fold between the IC50 in the HAP1 MTAP-intact cell line and the HAP1 MTAP-deleted cell line)”.
With `CC(=O)N1CCC(Nc2cc(C(=O)NC[C@H](O)CN3CCc4cc(OCc5ocnc5C)ccc4C3)cc(N(C)C3CCC3)n2)CC1` [Compound 628, (S)-2-((1-acetylpiperidin-4-yl)amino)-6-(cyclobutyl(methyl)amino)-N-(2-hydroxy-3-(6-((4-methyloxazol-5-yl)methoxy)-3,4-dihydroisoquinolin-2(1H)-yl)propyl)isonicotinamide], the IC50 on PRMT5 [1] is 50 to 500 nM; on PRMT5 [2], less than 50 nM; on PRMT5 [3] (read-out: No Co-factor IC50) it was 500 to 5000 nM; in the test with HAP1 MTAP-intact it was 1000 to 10000 nM; in the test with HAP1 MTAP-deleted it was less than 1000 nM. Further, the “SAM/MTA Ratio” value on PRMT5 [2] (setting [5]) is “A (a Ki ratio greater than or equal to 10 fold between the Ki in the presence of SAM and the Ki in the presence of MTA)”. In the test with HAP1 MTAP-deleted, the “MTAP Intact/Deleted Ratio” value was “B* (an IC50 ratio greater than or equal to 3 fold but lower than 10 fold between the IC50 in the HAP1 MTAP-intact cell line and the HAP1 MTAP-deleted cell line)”.
In the case of `CN(C)CCOc1cc(C(=O)NC[C@H](O)CN2CCc3c(ccc(OCc4cnco4)c3Cl)C2)cc(NC2CCC2)n1` [Compound 329, (S)—N-(3-(5-chloro-6-(oxazol-5-ylmethoxy)-3N-dihydroisoquinolin-2(1H)-yl)-2-hydroxypropyl)-2-(cyclobutylamino)-6-(2-(dimethylamino)ethoxy)isonicotinamide], the IC50 on PRMT5 [1] is 50 to 500 nM; at PRMT5 [2] it was less than 50 nM; on PRMT5 [3] (read-out: No Co-factor IC50) it was 500 to 5000 nM; in the test on HAP1 MTAP-intact it was no less than 10000 nM; in the test with HAP1 MTAP-deleted, 1000 to 10000 nM. At PRMT5 [2] (setting [5]), the “SAM/MTA Ratio” value is “A (a Ki ratio greater than or equal to 10 fold between the Ki in the presence of SAM and the Ki in the presence of MTA)”. The “MTAP Intact/Deleted Ratio” value in the test with HAP1 MTAP-deleted is “B* (an IC50 ratio greater than or equal to 3 fold but lower than 10 fold between the IC50 in the HAP1 MTAP-intact cell line and the HAP1 MTAP-deleted cell line)”.
In the case of `Cc1ncoc1COc1ccc2c(c1Cl)CCN(C[C@@H](O)CNC(=O)c1cccc(NC3CCC3)c1)C2` [Compound 344, N-[(2S)-3-{5-chloro-6-[(4-methyl-1,3-oxazol-5-yl)methoxy]-1,2,3,4-tetrahydroisoquinolin-2-yl}-2-hydroxypropyl]-3-(cyclobutylamino)benzamide], the half-maximal inhibitory concentration (IC50) was 50 to 500 nM on PRMT5 [1]; 50 to 500 nM at PRMT5 [2]; no less than 5000 nM on PRMT5 [3] (read-out: No Co-factor IC50); no less than 10000 nM in the test with HAP1 MTAP-intact; no less than 10000 nM with HAP1 MTAP-deleted. Besides, on PRMT5 [2] (setting [5]), the “SAM/MTA Ratio” value was “A (a Ki ratio greater than or equal to 10 fold between the Ki in the presence of SAM and the Ki in the presence of MTA)”. In addition, the “MTAP Intact/Deleted Ratio” value with HAP1 MTAP-deleted is “C* (an IC50 ratio of less than 3 fold between the IC50 in the HAP1 MTAP-intact cell line and the HAP1 MTAP-deleted cell line)”.
Turning to `Cc1c(OCc2cnco2)ccc2c1CCN(C[C@@H](O)CNC(=O)c1ccnc(NC3CCN(C(=O)CC(C)C)CC3)c1)C2` [Compound 447, (S)—N-(2-hydroxy-3-(5-methyl-6-(oxazol-5-ylmethoxy)-3N-dihydroisoquinolin-2(1H)-yl)propyl)-2-((1-(3-methylbutanoyl)piperidin-4-yl)amino)isonicotinamide], the IC50 was 50 to 500 nM on PRMT5 [1]; 50 to 500 nM on PRMT5 [2]; 500 to 5000 nM on PRMT5 [3]; no less than 10000 nM with HAP1 MTAP-intact; less than 1000 nM in the test with HAP1 MTAP-deleted. Also, the “SAM/MTA Ratio” value on PRMT5 [2] (setting [4]) was “A (a Ki ratio greater than or equal to 10 fold between the Ki in the presence of SAM and the Ki in the presence of MTA)”. In addition, in the test on HAP1 MTAP-deleted, the “MTAP Intact/Deleted Ratio” value was “A* (an IC50 ratio greater than or equal to 10 fold between the IC50 in the HAP1 MTAP-intact cell line and the HAP1 MTAP-deleted cell line)”.
Regarding `CC(C)C(=O)N1CCN(c2cc(C(=O)NC[C@H](O)CN3CCc4c(ccc(OCc5cnco5)c4Cl)C3)cc(NC3CCC3)n2)CC1` [Compound 466], the IC50 was 50 to 500 nM on PRMT5 [1]; 50 to 500 nM on PRMT5 [2]; 500 to 5000 nM at PRMT5 [3]; less than 1000 nM in the test with HAP1 MTAP-intact; less than 1000 nM with HAP1 MTAP-deleted. In addition, the “SAM/MTA Ratio” value at PRMT5 [2] (setting [4]) was “A (a Ki ratio greater than or equal to 10 fold between the Ki in the presence of SAM and the Ki in the presence of MTA)”. The “MTAP Intact/Deleted Ratio” value with HAP1 MTAP-deleted is “C* (an IC50 ratio of less than 3 fold between the IC50 in the HAP1 MTAP-intact cell line and the HAP1 MTAP-deleted cell line)”.
In the case of `O=C(NC[C@H](O)CN1CCc2c(ccc(OCc3cnco3)c2Br)C1)c1cccc(NC2CCC2)c1` [Compound 348, (S)—N-(3-(5-bromo-6-(oxazol-5-ylmethoxy)-3,4-dihydroisoquinolin-2(1H)-yl)-2-hydroxypropyl)-3-(cyclobutylamino)benzamide], the IC50 was 500 to 5000 nM on PRMT5 [1]; 500 to 5000 nM on PRMT5 [2]; no less than 5000 nM on PRMT5 [3] (read-out: No Co-factor IC50); no less than 10000 nM with HAP1 MTAP-intact; no less than 10000 nM in the test on HAP1 MTAP-deleted. Moreover, on PRMT5 [2] (setting [5]), the “SAM/MTA Ratio” value was “A (a Ki ratio greater than or equal to 10 fold between the Ki in the presence of SAM and the Ki in the presence of MTA)”. The “MTAP Intact/Deleted Ratio” value in the test with HAP1 MTAP-deleted was “C* (an IC50 ratio of less than 3 fold between the IC50 in the HAP1 MTAP-intact cell line and the HAP1 MTAP-deleted cell line)”.
As to `CC(=O)N1CCN(c2cc(C(=O)NC[C@H](O)CN3CCc4c(ccc(OCc5ocnc5C)c4C)C3)cc(NC3CCC3)n2)CC1` [Compound 502, 2-(4-acetylpiperazin-1-yl)-6-(cyclobutylamino)-N-[(2S)-2-hydroxy-3-{5-methyl-6-[(4-methyl-1,3-oxazol-5-yl)methoxy]-1,2,3,4-tetrahydroisoquinolin-2-yl}propyl]pyridine-4-carboxamide], the half-maximal inhibitory concentration (IC50) on PRMT5 [1] was 50 to 500 nM; at PRMT5 [2], 50 to 500 nM; at PRMT5 [3] it was 500 to 5000 nM; in the test with HAP1 MTAP-intact, 1000 to 10000 nM; in the test with HAP1 MTAP-deleted, less than 1000 nM. Besides, the “SAM/MTA Ratio” value at PRMT5 [2] (setting [4]) was “A (a Ki ratio greater than or equal to 10 fold between the Ki in the presence of SAM and the Ki in the presence of MTA)”. Also, the “MTAP Intact/Deleted Ratio” value with HAP1 MTAP-deleted is “A* (an IC50 ratio greater than or equal to 10 fold between the IC50 in the HAP1 MTAP-intact cell line and the HAP1 MTAP-deleted cell line)”.
With `O=C(NC[C@H](O)CN1CCc2cc(OCc3cnco3)ccc2C1)c1cc(NC2CCC2)nc(N2CCCCC2)c1` [Compound 320, (S)-2-(cyclobutylamino)-N-(2-hydroxy-3-(6-(oxazol-5-ylmethoxy)-3,4-dihydroisoquinolin-2(1H)-yl)propyl)-6-(piperidin-1-yl)isonicotinamide], the IC50 on PRMT5 [1] was in the range of 500 to 5000 nM; at PRMT5 [2] it was 500 to 5000 nM; at PRMT5 [3] (read-out: No Co-factor IC50), 500 to 5000 nM; in the test on HAP1 MTAP-intact, 1000 to 10000 nM; in the test with HAP1 MTAP-deleted, 1000 to 10000 nM. The “MTAP Intact/Deleted Ratio” value in the test with HAP1 MTAP-deleted is “C* (an IC50 ratio of less than 3 fold between the IC50 in the HAP1 MTAP-intact cell line and the HAP1 MTAP-deleted cell line)”.
